Experimental data reported in paper PMC4447598 (Annals of neurology, 2015).
Where “and” joins values, the source holds several entries; their conditions need not be identical. Equal values may be shown once.

What was measured:
Tau = Tau biochemistry and histology in 3xTg-AD mice; format: in vivo, mouse
[1] = AZD0530 pharmacokinetics in mice; format: in vivo, mouse
APP/PS1 transgenic mice [2] = assay: Morris water maze; format: in vivo, mouse
Pyk2 [3] = target: Pyk2 (Homo sapiens, UniProt Q14289); assay: LanthaScreen Europium Kinase Binding Assay
Pyk2 (Homo sapiens, UniProt Q14289), sequence (Q14289 whole entry): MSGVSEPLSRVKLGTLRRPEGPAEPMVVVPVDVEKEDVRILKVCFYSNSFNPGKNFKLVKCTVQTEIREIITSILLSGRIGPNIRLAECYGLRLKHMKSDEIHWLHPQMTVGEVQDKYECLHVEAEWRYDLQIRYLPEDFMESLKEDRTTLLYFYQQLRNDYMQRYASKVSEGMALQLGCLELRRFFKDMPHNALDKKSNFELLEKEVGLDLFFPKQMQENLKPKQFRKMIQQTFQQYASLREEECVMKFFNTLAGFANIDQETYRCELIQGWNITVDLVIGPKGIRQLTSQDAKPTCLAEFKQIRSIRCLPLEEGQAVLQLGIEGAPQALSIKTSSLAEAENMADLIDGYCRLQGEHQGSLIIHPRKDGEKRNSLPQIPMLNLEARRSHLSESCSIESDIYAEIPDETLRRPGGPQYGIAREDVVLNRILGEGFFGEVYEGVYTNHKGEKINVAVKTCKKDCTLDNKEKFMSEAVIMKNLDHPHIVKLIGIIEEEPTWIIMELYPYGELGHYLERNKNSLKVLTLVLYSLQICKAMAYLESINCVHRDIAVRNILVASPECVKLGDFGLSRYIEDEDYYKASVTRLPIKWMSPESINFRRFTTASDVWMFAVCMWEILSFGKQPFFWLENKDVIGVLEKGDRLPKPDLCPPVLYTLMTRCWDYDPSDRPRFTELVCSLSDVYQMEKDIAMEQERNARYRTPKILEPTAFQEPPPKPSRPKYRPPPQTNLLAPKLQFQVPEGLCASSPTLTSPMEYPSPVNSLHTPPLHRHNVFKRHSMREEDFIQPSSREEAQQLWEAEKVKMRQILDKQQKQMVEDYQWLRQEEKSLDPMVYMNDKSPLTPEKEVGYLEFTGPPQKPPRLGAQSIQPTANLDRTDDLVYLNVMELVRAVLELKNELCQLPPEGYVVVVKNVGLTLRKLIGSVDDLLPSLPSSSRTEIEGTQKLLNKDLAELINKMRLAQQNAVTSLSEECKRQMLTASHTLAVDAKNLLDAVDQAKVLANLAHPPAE

APP/PS1 transgenic mice [4] = assay: Glial reaction in cortex; format: in vivo, mouse; details: 5 mg/kg/d, 7 weeks
APP/PS1 transgenic mice [5] = assay: Synapse density in dentate gyrus; format: in vivo, mouse; details: 5 mg/kg/d, 7 weeks
Pyk2 [6] = assay: Activated pPyk2 levels in brain of APP/PS1 and WT mice; format: in vivo, mouse
Chronic = format: in vivo, beagle dogs
[7] = test system: NR2B subunit of NMDA-type Glu receptors; assay: Acute brain slice assay, pY-1472 NR2B immunoblot relative to total NR2B; format: cell-based, mouse
[8] = ref [27]; cited from earlier work
APP/Aβ = assay: APP metabolism and Aβ accumulation in brain of treated mice; format: in vivo, mouse; details: 5 mg/kg/d
Pyk2 [9] = assay: Acute brain slice assay, p-Pyk2; format: cell-based, mouse
APP/PS1 transgenic mice [10] = assay: Novel object recognition; format: in vivo, mouse; details: 5 mg/kg/d, 6 weeks treatment
[11] = RIPA extracts of TBS-insoluble material, 5 mg/kg/d 40 days
[12] = RIPA-insoluble fractions, 5 mg/kg/d 40 days
[13] = APP/PS1 mice, 5 mg/kg/d, 1-2 weeks treatment
[14] = APP/PS1 mice, 5 mg/kg/d, 3-5 weeks treatment

## CN1CCN(CCOc2cc(OC3CCOCC3)c3c(Nc4c(Cl)ccc5c4OCO5)ncnc3c2)CC1 [AZD0530, N-(5-chloro-1,3-benzodioxol-4-yl)-7-[2-(4-methylpiperazin-1-yl)ethoxy]-5-(tetrahydro-2H-pyran-4-yloxy)quinazolin-4-amine]
Tau; 3xTg-AD mice, 5 mg/kg/d, data not shown
  human Tau transgene mRNA (qRT-PCR): not changed
Tau; [11]
  decrease of pTau pS396 vs control 3xTg: 53%
  decrease of total Tau vs control 3xTg: 74%
Tau; [12]
  decrease of insoluble human Tau: 56%
  decrease of insoluble total Tau: 41%
[1]; Mus musculus, po, read-out: expected inhibition of Fyn kinase activity in brain
  inhibition at 5 mg/kg/day: ≥ 50%
[1]; mouse, 5 mg/kg/d for 3 days
  apparent brain half-life: 16 h
[1]; mouse, 5 mg/kg/d oral b.i.d., 30-60 min after dosing, 5 mg/kg/day
  peak brain level: 27 ng/g and 50 nM
[1]; mouse, 5 mg/kg/d, one pooled sample, 5 mg/kg/day
  peak CSF level: 7 ng/ml and 13 nM
[1]; mouse, 6 oral b.i.d. doses, 30-60 min after dosing
  CSF level as % of brain level: about 35%
[1]; mouse, CSF, oral, 5 mg/kg/day, trough CSF range calculated from multiple brain samples, 5 mg/kg/d
  concentration at 12 h: 3.1 ng/mL to 7.6 ng/mL and 5.8 nM to 14 nM
[1]; mouse, brain, oral, 5 mg/kg/day, apparent brain half-life, 5 mg/kg/d for 3 days
  half-life: ~16 h
APP/PS1 transgenic mice [2]; APP/PS1 mice, 2 mg/kg/d, 3-5 weeks treatment
  water maze performance: fails to improve water maze performance
APP/PS1 transgenic mice [2]; [13]
  impaired rate of acquisition during swims to a hidden platform: no improvement
  memory recall during 60 sec probe trial: no improvement
APP/PS1 transgenic mice [2]; [14]
  latencies to the hidden platform (spatial learning): eliminates the pre-existing transgenic deficit
  probe trial, preference for target quadrant: same strong preference for the target quadrant as do WT mice
APP/PS1 transgenic mice [2]; WT mice, 5 mg/kg/d
  latencies to a hidden platform: not altered
Pyk2 [3]
  IC50: > 250 µM
Pyk2 [3]; AZD0530 at concentrations up to 100 μM
  Pyk2 substrate binding: unaffected
APP/PS1 transgenic mice [4]
  astrocytic reaction (GFAP): no significant change
  extent of microglial induction (Iba1): significantly reduced
APP/PS1 transgenic mice [5]; APP/PS1 transgenic mice
  synapse density (PSD-95, SV2a puncta): fully restores synaptic puncta to WT levels
APP/PS1 transgenic mice [5]; WT mice
  synapse density (PSD-95, SV2a puncta): does not alter synapse density
Pyk2 [6]; APP/PS1 mice, 5 mg/kg/d for 7 weeks
  increase of p(Y402)Pyk2 in hippocampal CA1 and CA3 cell body layers (histology): reversed by AZD0530 treatment
Pyk2 [6]; WT mice
  pPyk2 level: does not significantly alter pPyk2
Pyk2 [6]; aged APP/PS1 mice, 5 mg/kg/d
  activated pPyk2 level (immunoblot), hippocampus: reduces activated pPyk2 level to that of WT mice exposed to vehicle
Chronic; both, beagle, dog, in vivo, po
  NOAEL at 273 days: > 5 mg/kg/day
Chronic; dog, 0.5, 2 or 5 mg/kg/d, 273 days
  body weight, hematological and coagulation parameters vs vehicle: no statistically significant difference
Chronic; dog, 39 weeks oral gavage at 0.5, 2 and 5 mg/kg/day
  tolerability: tolerated at all dose levels tested
Chronic; dog, any group including 5 mg/kg/d, 273 days
  abnormal measurement or pathology: No significantly abnormal measurement or evidence of pathology was detected
[7]; brain slices without Aβo
  basal phosphorylation of NR2B: suppresses
[7]; brain slices, 1 μM Aβo 30 min
  Aβo-induced phosphorylation of NR2B: full blocks
[8]
  half-life of the compound in humans: between one and two days
APP/Aβ; 3xTg-AD mice, data not shown
  APP/Aβ metabolism: no effect
APP/Aβ; APP/PS1 mice, 7 weeks
  APP fragments, Aβ plaque and different Aβ species vs vehicle-treated transgenic mice: no difference
Pyk2 [9]; brain slices without Aβo
  basal Pyk2 activation: suppresses
Pyk2 [9]; brain slices, 1 μM Aβo 30 min
  Aβo stimulation of Pyk2 activation: blocks
APP/PS1 transgenic mice [10]
  Novel Object Recognition performance: performance equal to the WT mice
